Experimental findings from patent US20030139431A1 (priority 2001, published 2003) are described below.

Test [1] has as its target T1, hNPFF1 (Homo sapiens, UniProt Q9GZQ6).
T1 construct: expressed in transfected cells
Briefly: Binding affinity at cloned recombinant human NPFF1 receptor.

The target of test [2] is T2, rNPFF1 (Rattus norvegicus, UniProt Q9EP86).
T2 construct: expressed in transfected cells
Briefly: Binding affinity at cloned recombinant rat NPFF1 receptor.

In test [3] the target is T3, hNPFF2 (Homo sapiens, UniProt Q9Y5X5).
T3 construct: expressed in transfected cells
Briefly: Binding affinity at cloned recombinant human NPFF2 receptor.

The target in test [4] is T3, hNPFF2. Briefly: Functional assay (agonist potency, intrinsic activity) at cloned human NPFF2 receptor. To be noted: for hNPFF2 IA (intrinsic activity): percent of maximum response elicited by neuropeptide FF, human NPFF2; for EC50: recombinant human NPFF2. It is filed as cell-based. The procedure:
(§1) Intrinsic activity of a compound is measured as the percent of maximum response.

Test [5] has as its target T2, rNPFF1. The test can be described thus: Functional assay (agonist potency, intrinsic activity) at cloned rat NPFF1 receptor. To be noted: for rNPFF1 IA (intrinsic activity): percent of maximum response elicited by neuropeptide FF, rat NPFF1; for EC50: recombinant rat NPFF1. It is filed as cell-based. On the procedure:
as §1

The target of test [6] is T4, rNPFF2 (Rattus norvegicus, UniProt Q9EQD2).
T4 construct: expressed in transfected cells
The test can be described thus: Functional assay (agonist potency, intrinsic activity) at cloned rat NPFF2 receptor. The class given is cell-based. The note with it: for rNPFF2 IA (intrinsic activity): percent of maximum response elicited by neuropeptide FF, rat NPFF2; for EC50: recombinant rat NPFF2. On the procedure: as §1

Test [7] has as its target T4, rNPFF2. The test can be described thus: Binding affinity at cloned recombinant rat NPFF2 receptor.
For test [8], the target named is T1, hNPFF1. Briefly: Functional assay (agonist potency, intrinsic activity) at cloned human NPFF1 receptor. To be noted: for hNPFF1 IA (intrinsic activity): percent of maximum response elicited by neuropeptide FF, human NPFF1; for EC50: recombinant human NPFF1. The class given is cell-based. The procedure: as §1

T4 sequence (Q9EQD2 whole entry): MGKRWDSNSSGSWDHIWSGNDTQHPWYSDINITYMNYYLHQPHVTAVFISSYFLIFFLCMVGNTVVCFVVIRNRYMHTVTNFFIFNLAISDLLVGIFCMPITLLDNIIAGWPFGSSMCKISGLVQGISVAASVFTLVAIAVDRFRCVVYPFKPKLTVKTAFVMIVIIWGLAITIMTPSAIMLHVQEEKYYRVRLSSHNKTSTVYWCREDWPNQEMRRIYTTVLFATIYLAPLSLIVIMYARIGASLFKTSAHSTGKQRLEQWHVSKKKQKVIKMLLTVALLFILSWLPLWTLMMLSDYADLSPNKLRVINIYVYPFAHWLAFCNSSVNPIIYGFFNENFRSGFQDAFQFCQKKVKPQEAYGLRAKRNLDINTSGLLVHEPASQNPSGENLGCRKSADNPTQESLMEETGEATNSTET
T2 sequence (Q9EP86 whole entry): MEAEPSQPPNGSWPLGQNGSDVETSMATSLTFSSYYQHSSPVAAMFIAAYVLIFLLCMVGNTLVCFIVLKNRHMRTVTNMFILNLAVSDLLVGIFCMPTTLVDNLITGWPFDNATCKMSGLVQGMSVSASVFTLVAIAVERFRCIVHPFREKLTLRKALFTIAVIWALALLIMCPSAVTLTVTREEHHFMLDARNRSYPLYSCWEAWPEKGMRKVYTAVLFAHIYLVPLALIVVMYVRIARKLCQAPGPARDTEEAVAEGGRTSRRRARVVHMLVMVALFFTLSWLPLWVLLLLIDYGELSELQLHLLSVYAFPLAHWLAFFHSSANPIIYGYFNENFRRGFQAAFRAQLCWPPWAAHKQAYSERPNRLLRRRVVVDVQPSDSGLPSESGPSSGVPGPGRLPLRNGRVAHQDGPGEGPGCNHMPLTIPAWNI
T1 sequence (Q9GZQ6 whole entry): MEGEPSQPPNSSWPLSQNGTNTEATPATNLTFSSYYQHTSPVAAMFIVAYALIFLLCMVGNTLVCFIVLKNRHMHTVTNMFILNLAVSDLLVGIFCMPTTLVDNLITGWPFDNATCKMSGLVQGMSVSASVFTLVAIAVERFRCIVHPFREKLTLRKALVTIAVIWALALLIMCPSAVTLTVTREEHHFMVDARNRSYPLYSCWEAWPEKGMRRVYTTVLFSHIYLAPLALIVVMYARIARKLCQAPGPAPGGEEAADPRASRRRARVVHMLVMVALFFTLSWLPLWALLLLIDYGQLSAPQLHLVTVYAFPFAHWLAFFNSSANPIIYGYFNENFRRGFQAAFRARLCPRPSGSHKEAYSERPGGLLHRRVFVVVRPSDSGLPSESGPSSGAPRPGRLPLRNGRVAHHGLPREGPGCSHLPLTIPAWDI
T3 sequence (Q9Y5X5 103-522): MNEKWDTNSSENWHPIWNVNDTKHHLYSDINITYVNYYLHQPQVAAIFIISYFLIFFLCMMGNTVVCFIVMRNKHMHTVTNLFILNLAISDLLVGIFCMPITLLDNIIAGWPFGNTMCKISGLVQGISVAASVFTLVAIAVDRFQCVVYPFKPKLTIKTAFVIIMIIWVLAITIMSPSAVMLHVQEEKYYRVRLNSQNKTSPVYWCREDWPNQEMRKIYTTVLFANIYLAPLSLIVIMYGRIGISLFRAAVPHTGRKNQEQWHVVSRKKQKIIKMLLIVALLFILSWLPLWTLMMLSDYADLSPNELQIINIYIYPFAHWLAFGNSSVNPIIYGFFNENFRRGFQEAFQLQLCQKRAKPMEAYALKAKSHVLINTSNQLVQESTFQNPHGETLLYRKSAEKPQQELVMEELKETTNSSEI

Consider `CCc1ccc2nc(NC(=N)N)cc(C)c2c1` [Compound 4002, N-(6-ethyl-4-methyl-2-quinolinyl)guanidine], for which the Ki was 50 nM on hNPFF1 [1], 11 nM at rNPFF1 [2], 232 nM at hNPFF2 [3] and 308 nM on rNPFF2 [7]. Further, the “hNPFF2 IA (intrinsic activity)” value on hNPFF2 [4] stood at 69% NPFF. Besides, the EC50 on hNPFF2 [4] is 314 nM; on rNPFF1 [5] it was over 10000 nM; on rNPFF2 [6], 125 nM; on hNPFF1 [8], over 10000 nM. Also, on rNPFF1 [5], the “rNPFF1 IA (intrinsic activity)” value is recorded as “Inactive”. Also, at rNPFF2 [6], the “rNPFF2 IA (intrinsic activity)” value is 84% NPFF. The “hNPFF1 IA (intrinsic activity)” value at hNPFF1 [8] is “Inactive”.

Take `CCCCCc1ccc2nc(NC(=N)N)cc(C)c2c1` [Compound 5002, N-(4-methyl-6-pentyl-2-quinolinyl)guanidine]: the inhibition constant Ki is 40 nM at hNPFF1 [1], 30 nM at rNPFF1 [2], 460 nM on hNPFF2 [3] and 569 nM at rNPFF2 [7]. The “hNPFF2 IA (intrinsic activity)” value on hNPFF2 [4] came to 75% NPFF. In addition, the EC50 on hNPFF2 [4] is 1710 nM; on rNPFF1 [5] it was 157 nM; at rNPFF2 [6], 259 nM; at hNPFF1 [8] it was over 10000 nM. The “rNPFF1 IA (intrinsic activity)” value on rNPFF1 [5] is reported as 41% NPFF. Also, on rNPFF2 [6], the “rNPFF2 IA (intrinsic activity)” value is recorded as 90% NPFF. The “hNPFF1 IA (intrinsic activity)” value at hNPFF1 [8] is listed as “Inactive”.

As for `CCCCCCc1ccc2nc(NC(=N)N)cc(C)c2c1` [Compound 5003, N-(6-hexyl-4-methyl-2-quinolinyl)guanidine], the Ki at hNPFF1 [1] was determined as 152 nM; on rNPFF1 [2], 532 nM; on hNPFF2 [3], 1170 nM; at rNPFF2 [7], 4420 nM. Also, the “hNPFF2 IA (intrinsic activity)” value at hNPFF2 [4] amounted to 45% NPFF. Further, the EC50 on hNPFF2 [4] was 3160 nM; on rNPFF1 [5], 440 nM; on rNPFF2 [6], 9990 nM; on hNPFF1 [8] it was over 10000 nM. Also, the “rNPFF1 IA (intrinsic activity)” value on rNPFF1 [5] came out at 27% NPFF. Moreover, the “rNPFF2 IA (intrinsic activity)” value at rNPFF2 [6] turned out to be 57% NPFF. In addition, the “hNPFF1 IA (intrinsic activity)” value at hNPFF1 [8] is given as “Inactive”.

Regarding `Cc1nc(NC(=N)N)nc2cc(-c3ccccc3)ccc12` [Compound 1023, N-(4-methyl-7-phenyl-2-quinazolinyl)guanidine], the Ki at hNPFF1 [1] is 228 nM; on rNPFF1 [2] it was 4 nM; at hNPFF2 [3] it was 2920 nM; at rNPFF2 [7], 1020 nM. Further, at hNPFF2 [4], the “hNPFF2 IA (intrinsic activity)” value is 43% NPFF. Further, the EC50 on hNPFF2 [4] was 4110 nM; on rNPFF1 [5], over 10000 nM; at rNPFF2 [6], 3160 nM; on hNPFF1 [8] it was over 10000 nM. The “rNPFF1 IA (intrinsic activity)” value at rNPFF1 [5] was “Inactive”. Moreover, the “rNPFF2 IA (intrinsic activity)” value on rNPFF2 [6] stood at 35% NPFF. Moreover, the “hNPFF1 IA (intrinsic activity)” value at hNPFF1 [8] was “Inactive”.

As for `Cc1cc(NC(=N)N)nc2c(C)cccc12` [Compound 6002, N-(4,8-dimethyl-2-quinolinyl)guanidine], the Ki came to 157 nM on hNPFF1 [1], 91 nM at rNPFF1 [2], 952 nM on hNPFF2 [3] and 883 nM on rNPFF2 [7]. In addition, the “rNPFF1 IA (intrinsic activity)” value on rNPFF1 [5] is reported as “Inactive”. For the same compound, the EC50 on rNPFF1 [5] and at rNPFF2 [6] was over 10000 nM each time. Besides, on rNPFF2 [6], the “rNPFF2 IA (intrinsic activity)” value was “Inactive”.

For the compound `CCc1cc(NC(=N)N)nc2cc(C)ccc12` [Compound 6003, N-(4-ethyl-7-methyl-2-quinolinyl)guanidine], the Ki on hNPFF1 [1] turned out to be 28 nM; on rNPFF1 [2] it was 21 nM; on hNPFF2 [3] it was 113 nM; on rNPFF2 [7] it was 203 nM. In addition, at rNPFF1 [5], the “rNPFF1 IA (intrinsic activity)” value was “Inactive”. The EC50 at rNPFF1 [5] and at rNPFF2 [6] was over 10000 nM in each case. Besides, at rNPFF2 [6], the “rNPFF2 IA (intrinsic activity)” value is “Inactive”.
